In ChEMBL document CHEMBL1132502, “Synthesis of a fluorescent microgonotropen (FMGT-1) and its interactions with the dodecamer d(CCGGAATTCCGG)” (Bioorg Med Chem Lett, 1999):

System: Nucleic Acid
Experiment: Association constant (Ka) with DNA dodecamer d(CCGGAATTCCGG) was determined
Assay type: nucleic-acid assay

CN1CCN(c2ccc3[nH]c(-c4ccc5[nH]c(-c6ccc(O)cc6)nc5c4)nc3c2)CC1
Ka: 1.3 M⁻¹
